{"source": "patent EP4050002A1", "about": "“ANTI-PROLIFERATIVE AGENTS” (First Health Pharmaceuticals B.V., priority 2021, dated 2022)", "key": {"MDAMB231 cell line": {"tested_on": "MDAMB231 cell line", "assay": "Cytotoxicity, cell count method", "type": "cell-based, human", "conditions": "Homo sapiens, MDA-MB-231, MDAMB231, 72 hours of incubation", "method": "The anti-tumor activity of the compounds of the present invention was evaluated as the effect on the proliferation and survival of tumor cells by counting the number of living cells in presence or absence of the compounds (\"cell count method\"), and as the effect on the viability and metabolic activity of the cells, by using particular substrates that are converted by cellular enzymes into coloured or luminescent products, proportionally with metabolic activity and state of the cell, such as the MTS tetrazolium compound (\"MTS method\") or luciferin (\"ATP-based method\") respectively.\nCells were seeded at 3 to 5 x 10^4 cells/well density depending on cell lines and maintained at 37°C in 5% CO2. After 24 hours cells were treated with ascending concentrations of the investigational compounds and the reference (5-fluoro-Uracyl) in a range from 0 to 100 µM. Compounds were dissolved in DMSO which final concentration in each well was 0.5% v:v. After 72 h of incubation with compounds, the cells were detached with trypsin and re-suspended in 1 ml of complete medium; the cell number was evaluated using a Z2 Coulter Counter (\"cell count method\") (Attallah and Johnson, A simple highly sensitive methods for the determination of cell viability using an electronic particle analyzer, Coulter counter J. Immunol. Methods. 1981, 41, 155; Leonardi et al., Activated kinase screening identifies the IKBKE oncogene as a positive regulator of autophagy. Autophagy, 2019, 15, 312). Alternatively, after the 72 hours of incubation with compounds, the MTS solution (CellTiter 96® AQueous One Solution Cell Proliferation Assay) is added to each well and absorbance at 490 nm wavelength is read after 2 hours of incubation (\"MTS method\"). Results in Tables 8-13, 17, 18 were obtained with the cell count method. Results in Tables 14-15 were obtained with the MTS method. Results in Table 16 were obtained with ATP-based method."}, "Plasma stability": {"assay": "Plasma stability", "type": "in vitro ADME", "conditions": "Human plasma", "method": "Plasma previously separated from whole blood in EDTA-treated tubes and frozen; blood samples obtained from healthy volunteers, Sprague Dawley rats and CD1 mice, was thawed at room temperature and centrifuged at 1400x RCF 4°C, for 15 minutes. Approximately 90% of the clear supernatant fraction was transferred to a separate tube and was used for the assay.\nStocks (1 mM and 25 µM) of test compound were prepared in acetonitrile:water (50:50 v/v). Plasma samples were heat inactivated at 54°C. 3 µl of 25 µM test compound were added to 72 µl of heat inactivated plasma. A 50 µL aliquot of the mixture was taken and crashed with 200 µl of acetonitrile containing Telmisartan 100 ng/ml as internal standard and was further processed along with other time points: 10, 30 60 and 120 minutes.\nFinal working stock of 1 µM was prepared by diluting 12 µl of 25 µM stock in 288 µl of plasma. The obtained solution (300 µl) of plasma containing the test compound was incubated for […] at 37°C in shaker water bath with gentle shaking. 50 µl aliquot of sample at 10, 30, 60 and 120 min was precipitated immediately with 200 µl of acetonitrile containing internal standard and centrifuged at 4000x RCF, 4°C for 20 minutes. 150 µl of supernatant was diluted with 150 µl of water and analyzed by LC-MS/MS.\nThe % remaining of the test substance was calculated as: (Peak Area ratio at time (min))/(Peak Area Ratio at 0 min) ^∗ 100\nThe API400 MS and Agilent 1260 Infinity LC were used. Mobile Phase included 10mM Ammonium acetate with 0.1% formic acid in MilliQ water, and Methanol. The column was Phenomenex, KINETIC EVO C18 100A 5u 50^∗4.6 mm, 10 µl injection volume."}}, "data": [{"smiles": "CCCCc1cn(-c2ccc(-c3nnc(-c4ccccc4C(F)(F)F)o3)cc2)nn1", "note": "[Compound 5]", "values": [{"measurement": "IC50", "setting": "MDAMB231 cell line", "value": 0.58, "unit": "µM"}, {"measurement": "% Remaining ± SD", "setting": "Plasma stability; 0 minutes", "value": "100.0 ± 3.9", "unit": "%"}, {"measurement": "% Remaining ± SD", "setting": "Plasma stability; 10 minutes", "value": "107.1 ± 7.7", "unit": "%"}, {"measurement": "% Remaining ± SD", "setting": "Plasma stability; 30 minutes", "value": "87.2 ± 10.3", "unit": "%"}, {"measurement": "% Remaining ± SD", "setting": "Plasma stability; 60 minutes", "value": "88.3 ± 7.0", "unit": "%"}, {"measurement": "% Remaining ± SD", "setting": "Plasma stability; 120 minutes", "value": "88.2 ± 8.2", "unit": "%"}]}]}
